# Data taken from patent US20130136803A1, “COMPOSITIONS FOR ALGAE TREATMENT IN RECIRCULATING AND STAGNANT WATER SYSTEMS” (ARCH CHEMICALS, INC., priority 2011, published 2013).
# Tested on: wild mustard algae strain
# Assay: Efficacy of zinc and chelating agents against mustard algae (biomass over time by absorbance at 450 nm and visual assessment)
# Type: cell-based
# Conditions: FIGS. 1-4
# Method: A wild mustard algae strain isolated from a residential swimming pool was used in this study. This strain was re-suspended into sterile capped flasks of 250 ml capacity, containing 100 ml sterile Kratz/Meyers (KM) algae medium. Algae stock cultures were incubated at room temperature with a 16/8 hours on/off cycle white fluorescent lighting for approximately 2 weeks to obtain actively growing liquid cultures at the time of experiment.
# Sterile KM medium was dispensed in 50 ml aliquots into sterile 125 ml capped Erlenmeyer flasks containing 40 glass beads of 6 mm diameter. Beads provided an increased surface area for algae to attach, since this alga develops as a loosely attached yellow growth on pool surfaces. Simultaneously, beads helped to homogenize samples by grinding at the time of sampling. An initial mustard algae culture of approximately 2×104 was set into each flask. […]
# Algal cultures were challenged with 2 or 4 ppm zinc from zinc sulfate monohydrate combined with 2 or 10 ppm chelator. […] Biomass was measured over time by surrogate parameters: absorbance and visual assessment. Absorbance was measured at 450 nm using 1 inch cell in a spectrophotometer; visual assessment range was 0-3, where “0” equal to no growth and “3” equal to very heavy growth. The results of the optical readings were arithmetically averaged. […]
structure (smiles),measurement,setting,value
"O=P1([O-])OP(=O)([O-])OP(=O)([O-])OP(=O)([O-])OP(=O)([O-])OP(=O)([O-])O1.[Na+].[Na+].[Na+].[Na+].[Na+].[Na+] [SHMP, sodium hexametaphosphate]",effect of chelating agent on the algaestatic activity of zinc ions,"2 or 4 ppm zinc from zinc sulfate monohydrate combined with 2 or 10 ppm chelator, 3 weeks, compared with zinc alone",enhanced the performance of the algaestatic activity of zinc ions at all concentrations
same,dependence of the enhancing effect on the ratio of zinc to SHMP,zinc to SHMP ratios 2:1 to 1:5,effect became greater with increasing amount of SHMP to a ratio of 1:5
